The structures appear in SMILES notation.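 Results reflect a 48-hour exposure of cells in 96-well plates to compound at five concentrations. The concentration for 50% growth inhibition is given as GI50. TGI: concentration producing complete growth inhibition.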

Among the data in PubChem BioAssay (NCI) are TGI and GI50 values, retold here.

Assay in all cases: NCI-60 cell line screen, 48 h
Assay [1] has as its system TK-10 renal.
The subject of assay [2] is SW-620 colon.
Assay [3] deals with A498 renal.
The test system of assay [4] is IGROV1 ovarian.
Assay [5] deals with M14 melanoma.
In assay [6] the test system is HL-60(TB) leukemia.
Assay [7] has as its system SNB-19 CNS.
The test system of assay [8] is NCI-H23 lung.
The test system of assay [9] is RPMI-8226 leukemia.

As to `Cc1cc(=O)n(-c2ccccc2)c(=O)o1`, the TGI in [1], in [2], in assay [3], in assay [4], in [5] and in assay [6] was above 100 µM each time. Besides, the TGI in assay [7], in assay [8] and in assay [9] was above 100 µM each time.
As to `COC(=O)[C@H]1[C@H]2C[C@@H]3c4[nH]c5cc(OC)ccc5c4CCN3C[C@H]2C[C@@H](OC(=O)c2cc(OC)c(OC)c(OC)c2)[C@@H]1OC`, the TGI in assay [1] is 38 µM; in assay [2] it was above 100 µM; in [4], 47.1 µM; in assay [5], 30.3 µM; in assay [6] it was 30.5 µM; in [7], 41 µM. The TGI in assay [8] stood at 41.7 µM; in [9], 39.5 µM.
Take `O=C(c1ccccc1)C(c1ccccc1)C1(O)C(=O)Nc2ccccc21` (configuration not stated): the TGI in assay [1], in assay [2], in assay [3], in assay [4], in [5] and in assay [6] was above 100 µM throughout. Besides, the TGI in assay [7], in assay [8] and in [9] was above 100 µM throughout.
Turning to `[N-]=[N+]=Nc1ccc(CCN2CCN(c3cccc(C(F)(F)F)c3)CC2)cc1I`, the TGI is above 100 µM in [1]; above 100 µM in assay [2]; above 100 µM in [3]; above 100 µM in assay [5]; 45.2 µM in assay [6]; above 100 µM in assay [7]. The TGI is above 100 µM in assay [8] and 69.4 µM in assay [9].
In the case of `CC1(C)C(c2ccccc2)C12CCC1(C2=O)C(c2ccccc2)C1(C)C` (configuration not stated), the TGI in [1] was above 100 µM; in [2] it was 46.8 µM; in assay [3], 90.7 µM; in [4], above 100 µM; in assay [5], 75.5 µM; in assay [6], 37.4 µM. For the same molecule, the values for the TGI in assay [7], in assay [8] and in [9] were 76.5 µM, 44.6 µM and 33.3 µM, respectively.
`CN1C(OCc2ccccc2)c2c(ccc3c2OCO3)C2C=Cc3cc4c(cc3C21)OCO4` (configuration not stated): the TGI is 3.3 µM in assay [1]; 1.35 µM in assay [2]; 2.09 µM in assay [4]; 2.1 µM in assay [5]; 3.06 µM in assay [7]; 2.68 µM in assay [8]. In addition, the TGI in [9] was found to be 0.584 µM.
As for `C[C@@H](C1CCC2C3C(=CC(=O)[C@@]21C)[C@H](C)[C@]1(CCC(=O)O1)C1OC31)[C@H]1C[C@]2(C)O[C@@](C)(O1)OC2(C)C` (some centres not stated), the TGI in assay [1], in [2], in assay [3], in assay [4], in assay [5] and in assay [6] was above 100 µM in each case. Besides, the TGI in [7], in assay [8] and in assay [9] was above 100 µM each time.
Take `CCCN(CCCN)/[N+]([O-])=N\O`: the TGI in assay [2], in assay [4], in [5], in assay [6], in [7] and in [8] was above 100 µM in each case. Besides, the TGI in [9] is above 100 µM.
`COc1c(C2=NC(C(C)C)CO2)ccc2ccccc12` (configuration not stated): the TGI in assay [1] was above 100 µM; in assay [2], above 100 µM; in assay [3], above 100 µM; in assay [4], above 100 µM; in [5] it was above 100 µM; in [6] it was 42.9 µM. The TGI is above 100 µM in assay [7], above 100 µM in [8] and 65.6 µM in assay [9].
Take `O=[N+]([O-])c1cc([N+](=O)[O-])c(Cl)c(Cl)c1Cl`: the GI50 in assay [1] is 1.8 µM; in assay [2] it was 0.535 µM; in assay [3] it was 5.2 µM; in assay [4], 1.23 µM; in [6], 2.07 µM; in assay [7] it was 3.36 µM. Besides, the values for the GI50 in assay [8] and in [9] were 2.69 µM and 1.54 µM, respectively. The TGI came to 3.65 µM in [1]; 1.94 µM in assay [2]; 17.9 µM in assay [3]; 7.25 µM in assay [4]; 4.69 µM in assay [6]; 12 µM in [7]. Also, the TGI in assay [8] turned out to be 8.04 µM; in [9], 5.01 µM.
As to `CC(C)N(C(=O)C12C3C4C5C3C1(C(=O)N(C(C)C)C(C)C)C5(C#N)C42)C(C)C` (configuration not stated), the TGI is above 100 µM in [1]; above 100 µM in assay [2]; above 100 µM in assay [3]; above 100 µM in assay [4]; above 100 µM in assay [5]; 39.4 µM in [6]. For the same molecule, the TGI in assay [7] was above 100 µM; in assay [8], above 100 µM; in assay [9], 66.2 µM.
As to `O=C1c2ccccc2C(=O)C2C1C1C(=O)c3ccccc3C(=O)C21` (configuration not stated), the TGI in [1], in [2], in assay [4], in [5], in [6] and in assay [7] was above 100 µM in each case. The TGI in assay [8] was above 100 µM.
For `N=CCCN(CCC=N)c1ccc(/C=C2\CN(NC(=O)c3ccc(Cl)cc3)C(c3ccccc3)=N2)cc1`, the TGI in assay [1] was above 100 µM; in [2] it was 30.6 µM; in assay [3], above 100 µM; in assay [4], above 100 µM; in [5], above 100 µM; in assay [6], above 100 µM. The TGI was above 100 µM in assay [7], above 100 µM in assay [8] and 53.6 µM in assay [9].
Turning to `CC(C)(C)N/N=C(\Cc1occc(=O)c1O)C(=O)Nc1ccc([N+](=O)[O-])cc1[N+](=O)[O-]`, the TGI in assay [1], in assay [2], in assay [3], in [4], in assay [5] and in assay [6] was above 100 µM in each case. In addition, the TGI in assay [7], in assay [8] and in [9] was above 100 µM each time.
As to `COc1cc(=O)oc(/C=C/C=O)c1C`, the TGI in assay [1] is 76.2 µM; in [2] it was 37.6 µM; in assay [3], above 100 µM; in assay [4] it was above 100 µM; in assay [5], 33.8 µM; in [6], 83.9 µM. Also, the TGI was determined as 28.5 µM in assay [7] and 46.7 µM in assay [8].
For `Nc1ncnc2c1ncn2C1OC(CSC(F)(F)F)C(O)C1O` (configuration not stated), the TGI in [1], in assay [2], in [3], in [4], in assay [5] and in assay [6] was above 100 µM each time. Further, the TGI in assay [8] and in [9] was above 100 µM each time.
For the molecule `CCC1=C(C)/C(=C/c2[nH]c(C(Br)Br)c(CC)c2C)N=C1C(Br)Br`, the TGI in [1] is above 100 µM; in [2] it was above 100 µM; in assay [4], above 100 µM; in assay [5], above 100 µM; in assay [6] it was 52.2 µM; in assay [7] it was above 100 µM. In addition, the TGI was above 100 µM in assay [8] and 39.9 µM in [9].
`O=C(CC(=O)c1ccc([N+](=O)[O-])cc1)C(=O)Nc1nccs1`: the TGI in [1], in assay [2], in assay [4], in assay [5], in [6] and in assay [7] was above 100 µM in each case. Also, the TGI in [8] and in assay [9] was above 100 µM each time.
`CCCCSN1C(=O)c2ccccc2C1=S`: the TGI in assay [1] was above 100 µM; in assay [2] it was above 100 µM; in assay [3], above 100 µM; in assay [4], above 100 µM; in assay [5], above 100 µM; in assay [6], 51.2 µM. Besides, the TGI in assay [7] was above 100 µM; in assay [8], above 100 µM; in assay [9], 49.4 µM.
`Cc1ccc(NC(=O)CC/C(CC(=O)C(C)(C)C)=N/NC(=O)C(N)=O)cc1C`: the TGI in assay [1], in [2], in [3], in [4], in assay [5] and in [6] was above 100 µM in each case. The TGI in assay [7], in assay [8] and in [9] was above 100 µM throughout.
For the molecule `COc1ccc(Cl)cc1Nc1nc(C(F)(F)F)ccc1C(=O)N/N=C/c1ccc([N+](=O)[O-])cc1`, the GI50 is 1.22 µM in assay [1]; 2.77 µM in assay [2]; 1.86 µM in assay [3]; 2.56 µM in assay [4]; 1.6 µM in assay [5]; 2.14 µM in assay [6]. The figures for the GI50 in assay [7], in [8] and in assay [9] were 2.33 µM, 2.05 µM and 1.6 µM, respectively. The TGI in assay [1] is 5.88 µM; in [2] it was above 100 µM; in [3], 6.45 µM; in assay [4] it was 6.49 µM; in [5] it was 5.41 µM; in assay [6] it was 7.18 µM. Further, the values for the TGI in assay [7], in [8] and in [9] were 13 µM, 7.52 µM and 6.55 µM, respectively.
As for `NC(N)=NS(=O)(=O)c1ccc(Nc2c3ccccc3nc3c(C(=O)N4CCN(CCO)CC4)cccc23)cc1`, the TGI in assay [1], in assay [2], in assay [3], in assay [4], in [5] and in assay [6] was above 100 µM in each case. The TGI in assay [7] and in assay [8] was above 100 µM each time.
`COc1ccc(CN2C(=O)C(Cc3cc(OC)c(OC)c(C)c3OC)NC(=O)/C2=C/c2cc(OC)c(OC)c(C)c2OC)cc1` (configuration not stated): the TGI in assay [1] was 83.1 µM; in [2], above 100 µM; in [3], 97.6 µM; in [4] it was above 100 µM; in assay [5] it was 96.9 µM; in assay [6], 45.8 µM. Besides, the TGI in [8] was above 100 µM; in assay [9] it was 70.2 µM.
On to `CC(=O)[CH-]C(=O)c1ccccc1.CC(=O)[CH-]C(=O)c1ccccc1.COc1cccc([O-])c1[O-].[Ti+4]`, for which the GI50 in assay [1] was above 100 µM; in assay [2], 52.6 µM; in [3] it was 72.5 µM; in assay [4] it was above 100 µM; in assay [5] it was 64.9 µM; in assay [6] it was 20.3 µM. The figures for the GI50 in assay [7] and in assay [9] were 64.3 µM and 57.1 µM, respectively. Also, the TGI in assay [1] is above 100 µM; in assay [2] it was above 100 µM; in assay [3], above 100 µM; in assay [4], above 100 µM; in assay [5], above 100 µM; in [6], 98.2 µM. Also, the TGI in assay [7] and in [9] was above 100 µM throughout.
Consider `O=C(Cc1nc2ccccc2c(=O)n1-c1c(Cl)cccc1Cl)c1ccncc1`, for which the TGI in assay [1] was above 10 µM; in assay [2] it was above 100 µM; in assay [3], 72.3 µM; in assay [4], 49.7 µM; in [5] it was above 100 µM; in assay [6] it was 30.6 µM. For the same molecule, the TGI in assay [7] and in [8] was above 100 µM each time.
In the case of `CN(C)c1ccc2c(c1)CN1C(=O)c3ccccc3C1=N2`, the GI50 in assay [1], in assay [2], in assay [4], in assay [5], in assay [6] and in assay [7] was above 100 µM in each case. Besides, the GI50 in assay [8] and in assay [9] was above 100 µM in each case. Also, the TGI in assay [1], in assay [2], in assay [4], in assay [5], in assay [6] and in assay [7] was above 100 µM each time. The TGI in [8] and in assay [9] was above 100 µM throughout.
For `O=S1CSCS1` (configuration not stated), the TGI in assay [1], in assay [2], in assay [3], in assay [4], in assay [5] and in [6] was above 100 µM throughout. The TGI in [7] and in assay [8] was above 100 µM in each case.
